Experimental data taken from the NIST ThermoML archive (doi:10.1021/je300345m).

Experiments:
[1] = Liquid, Vibrating tube method
[2] = xn = mol fraction of the nth substance listed; conditions: Liquid, Vibrating tube method, x2 = 0

OCCNCCO [diethanolamine]
[1]
Conditions	mass density [kg/m3]
298.15 K, 100 kPa	1093.6
303.15 K, 100 kPa	1090.4
308.15 K, 100 kPa	1087.1
313.15 K, 100 kPa	1083.8
318.15 K, 100 kPa	1080.6
323.15 K, 100 kPa	1077.4
328.15 K, 100 kPa	1074.1
333.15 K, 100 kPa	1070.8
338.15 K, 100 kPa	1067.4
343.15 K, 100 kPa	1064
348.15 K, 100 kPa	1060.6
353.15 K, 100 kPa	1057.2
358.15 K, 100 kPa	1053.7
363.15 K, 100 kPa	1050.1
373.15 K, 700 kPa	1043.3
383.15 K, 700 kPa	1035.5
393.15 K, 700 kPa	1028.1
403.15 K, 700 kPa	1020.5
413.15 K, 700 kPa	1012.9
423.15 K, 700 kPa	1004.8

CN(CCO)CCO [N-methyldiethanolamine]
[1]
Conditions	mass density [kg/m3]
298.15 K, 100 kPa	1036
303.15 K, 100 kPa	1032.4
308.15 K, 100 kPa	1028.6
313.15 K, 100 kPa	1024.8
318.15 K, 100 kPa	1021
323.15 K, 100 kPa	1017.2
328.15 K, 100 kPa	1013.3
333.15 K, 100 kPa	1009.4
338.15 K, 100 kPa	1005.6
343.15 K, 100 kPa	1001.7
348.15 K, 100 kPa	997.7
353.15 K, 100 kPa	993.8
358.15 K, 100 kPa	989.9
363.15 K, 100 kPa	985.9
373.15 K, 700 kPa	978.6
383.15 K, 700 kPa	970.3
393.15 K, 700 kPa	962.1
403.15 K, 700 kPa	953.9
413.15 K, 700 kPa	945.6
423.15 K, 700 kPa	937

O [water] + OCCNCCO
[2]
Conditions	mass density [kg/m3]
323.15 K, 100 kPa	988
328.15 K, 100 kPa	985.7
333.15 K, 100 kPa	983.2
338.15 K, 100 kPa	980.5
343.15 K, 100 kPa	977.7
348.15 K, 100 kPa	974.8
353.15 K, 100 kPa	971.8
358.15 K, 100 kPa	968.6
363.15 K, 100 kPa	965.3
373.15 K, 700 kPa	958.6
383.15 K, 700 kPa	951.2
393.15 K, 700 kPa	943.4
403.15 K, 700 kPa	935.1
413.15 K, 700 kPa	926.3
423.15 K, 700 kPa	917.1

O [water] + CN(CCO)CCO
[2]
Conditions	mass density [kg/m3]
323.15 K, 100 kPa	988
328.15 K, 100 kPa	985.7
333.15 K, 100 kPa	983.2
338.15 K, 100 kPa	980.5
343.15 K, 100 kPa	977.7
348.15 K, 100 kPa	974.8
353.15 K, 100 kPa	971.8
358.15 K, 100 kPa	968.6
363.15 K, 100 kPa	965.3
373.15 K, 700 kPa	958.6
383.15 K, 700 kPa	951.2
393.15 K, 700 kPa	943.4
403.15 K, 700 kPa	935.1
413.15 K, 700 kPa	926.3
423.15 K, 700 kPa	917.1
